Assays:
Cynomolgus IPSCs = experiment: Hepatocyte differentiation of cynomolgus IPSCs (supplement optimisation)
Description: To initialize differentiation, the cells are incubated in a defined medium comprising a Wnt pathway activator.
Generally, media change was performed every day until day 16 and afterwards every second day. Basic medium for differentiation was MT basic medium (DMEM/F12+Glutamax with insulin 7 μg/ml, monothioglycerole 450 μM, 1× Lipid concentrate, BSA 5 mg/ml, sodium selenite 14 ng/ml, 1× non-essential amino acids, heparin 2 mg/ml, transferrin 15 μg/ml, 220 μM ascorbic acid-2-phosphate) or changing to RPMI1640 medium+B27 1:50+non-essential amino acids 1:100 from day 3 of differentiation onwards. On day 1 of differentiation, medium was changed to MT basic medium with 100 ng/ml ActivinA, 10 μM Ly294002 and 1 μM CP21 (Roche GSK3β inhibitor). Then, cells were treated for two days with 100 ng/ml ActivinA, 0.25 μM LDN193189 and 1 μM CP21. At day 4, the medium was changed for three days to the supplements 50 ng/ml ActivinA, 2% knock-out serum replacement (KSR) and 0.5% DMSO. The protocol was modified to a prolonged step of high ActivinA which consisted of 100 ng/ml ActivinA at day 4 of differentiation. To induce hepatic specification, cells were maintained for four days in medium supplemented with 2% KSR, 10 ng/ml BMP4, 10 ng/ml FGF2 or FGF10 and 0.5% DMSO. […] Modification included the addition of 1 μM DAPT between day 11 and day 20. Further modifications included the change of the basis medium for maturation at day 11 to HBM medium+SingleQuots™ (Lonza).
At day 21 of differentiation, efficiency of differentiation was analyzed using two different quantification methods. First, the area covered by ALB positive cells was determined and second the area of cells with typical hepatocyte morphology was evaluated (FIG. 6A and FIG. 6B).

[1] = system: NHP-IPSC-derived hepatocytes; experiment: Hepatotoxicity assay (WST-1 cell viability); assay type: cell-based, Cynomolgus monkey; details: 100 μM, 24 hours, WST-1, MACS-enriched cells in matrigel sandwich
Description: NHP-IPSC-derived hepatocytes were enriched using MACS and replated in matrigel sandwich condition as described above. To assess cell response to hepatotoxic compounds cells were treated with 100 μM troglitazone (Sigma) for 24 hours. Cell viability was measured using the WST-1 reagent (Sigma). 10 μl WST-1 reagent were added directly to the medium (1:10 dilution) and cells were incubated for 4 hours at 37° C., 5% CO2. Plates were stirred for 15 seconds and absorbance at 405 nm was measured.
To assess the feasibility of NHP IPSC-derived hepatocytes as model system for drug-induced liver injury, we treated the hepatocytes with Troglitazone, a small molecule with known hepatotoxic effects.

## FGF2: fibroblast growth factor used for hepatic specification
Cynomolgus IPSCs; 10 ng/ml FGF2 versus FGF10, hepatic specification step
  ALB positive cells at day 21: more ALB positive cells than FGF10 treatment

## Cn1cc(C2=C(c3cccc(N)c3)C(=O)NC2=O)c2ccccc21 [CP21, 3-(3-Amino-phenyl)-4-(1-methyl-1H-indol-3-yl)-pyrrole-2,5-dione]
Cynomolgus IPSCs; CP21 1 μM, cell density 45000/cm^2, tested 0 to 2 μM, 30000 to 75000/cm^2
  efficiency of differentiation of pluripotent stem cells into hepatocytes: most efficient differentiation
Cynomolgus IPSCs; CP21 concentrations above 2 μM
  cell viability during differentiation: decreased cell viability

## Cc1c(C)c2c(c(C)c1O)CCC(C)(COc1ccc(CC3SC(=O)NC3=O)cc1)O2 (stereo not shown) [Troglitazone]
[1]
  cell viability compared to control cells: decrease in cell viability

— patent publication US11208629B2, “Non-human primate induced pluripotent stem cell derived hepatocytes and uses thereof” (Hoffmann-La Roche Inc., priority 2016, dated 2021)
